Measurements as given in ChEMBL document CHEMBL4342484, “Structure-Activity Relationship for the Oxadiazole Class of Antibacterials” (ACS Med Chem Lett, 2020).
In brackets after ≈: the same amount, converted by molar mass. Activity calls are given as the source filed them. The rule behind the calls is not given here.

Assays:
Staphylococcus aureus [1] = test: Antibacterial activity against Staphylococcus aureus ATCC 29213 by broth microdilution method; format: functional
[2] = Plasma protein binding in human at […] incubated for 2 hrs by UPLC analysis; format: ADME, cell-free; details: read-out: PPB (converted)
HepG2 = test: Cytotoxicity against human HepG2 cells assessed as reduction in cell viability by XTT assay; format: cell-based
[3] = Hemolytic activity in human RBC relative to control; format: ADME, cell-based, Erythrocyte; details: red blood cells (erythrocytes), read-out: Activity
Staphylococcus aureus [4] = test: Antibacterial activity against Staphylococcus aureus ATCC 27660 by broth microdilution method; format: functional
Staphylococcus aureus [5] = test: Antibacterial activity against Staphylococcus aureus N315 (NRS70) by broth microdilution method; format: functional
Staphylococcus aureus [6] = test: Antibacterial activity against Staphylococcus aureus NRS100 (COL) by broth microdilution method; format: functional
Staphylococcus aureus [7] = test: Antibacterial activity against Staphylococcus aureus NRS119 by broth microdilution method; format: functional
Staphylococcus aureus [8] = test: Antibacterial activity against Staphylococcus aureus NRS120 by broth microdilution method; format: functional
Staphylococcus aureus [9] = test: Antibacterial activity against vancomycin-resistant Staphylococcus aureus VRS1 clinical isolate by broth microdilution method; format: functional
Staphylococcus aureus [10] = test: Antibacterial activity against vancomycin-resistant Staphylococcus aureus VRS2 clinical isolate by broth microdilution method; format: functional
[11] = system: Staphylococcus epidermidis; test: Antibacterial activity against Staphylococcus epidermidis ATCC 35547 by broth microdilution method; format: functional
[12] = system: Staphylococcus haemolyticus; test: Antibacterial activity against Staphylococcus haemolyticus ATCC 29970 by broth microdilution method; format: functional
Bacillus cereus = test: Antibacterial activity against Bacillus cereus ATCC 13061 by broth microdilution method; format: functional
Bacillus licheniformis = test: Antibacterial activity against Bacillus licheniformis ATCC 12759 by broth microdilution method; format: functional
Enterococcus faecalis [13] = test: Antibacterial activity against Enterococcus faecalis ATCC 29212 by broth microdilution method; format: functional
Enterococcus faecalis [14] = test: Antibacterial activity against vancomycin-susceptible Enterococcus faecalis 201 clinical isolate by broth microdilution method; format: functional
Enterococcus faecalis [15] = test: Antibacterial activity against vancomycin-resistant Enterococcus faecalis 99 clinical isolate by broth microdilution method; format: functional
Enterococcus faecium [16] = test: Antibacterial activity against vancomycin-susceptible Enterococcus faecium 119-39A clinical isolate by broth microdilution method; format: functional
Enterococcus faecium [17] = test: Antibacterial activity against vancomycin-resistant Enterococcus faecium 106 clinical isolate by broth microdilution method; format: functional
Enterococcus faecium [18] = test: Antibacterial activity against Enterococcus faecium NCTC 7171 by broth microdilution method; format: functional
[19] = AUC (0 to last) in ICR mouse at 20 mg/kg, iv measured for 24 hrs by UPLC analysis; format: ADME, organism-based; details: in vivo
[20] = AUC (0 to infinity) in ICR mouse at 20 mg/kg, iv measured for 24 hrs by UPLC analysis; format: ADME, organism-based; set-up: dose 20 mg/kg, time infinity, route intravenous; details: in vivo
[21] = Clearance in ICR mouse at 20 mg/kg, iv measured for 24 hrs by UPLC analysis; format: ADME, organism-based; details: in vivo
[22] = Volume of distribution in ICR mouse at 20 mg/kg, iv measured for 24 hrs by UPLC analysis; format: ADME, organism-based; details: in vivo
[23] = Distribution half life in ICR mouse at 20 mg/kg, iv measured for 24 hrs by UPLC analysis; format: ADME, organism-based; details: in vivo, read-out: alphat1/2 (converted)
[24] = Terminal half life in ICR mouse at 20 mg/kg, iv measured for 24 hrs by UPLC analysis; format: ADME, organism-based; details: in vivo, read-out: beta t1/2 (converted)
[25] = AUC (0 to last) in ICR mouse at 20 mg/kg, po administered as via gavage measured for 36 hrs by UPLC analysis; format: ADME, organism-based; details: in vivo
[26] = AUC (0 to infinity) in ICR mouse at 20 mg/kg, po administered as via gavage measured for 36 hrs by UPLC analysis; format: ADME, organism-based; set-up: dose 20 mg/kg, route oral, time infinity; details: in vivo
[27] = Cmax in ICR mouse at 20 mg/kg, po administered as via gavage measured for 36 hrs by UPLC analysis; format: ADME, organism-based; set-up: dose 20 mg/kg, route oral; details: in vivo
[28] = Tmax in ICR mouse at 20 mg/kg, po administered as via gavage measured for 36 hrs by UPLC analysis; format: ADME, organism-based; details: in vivo
[29] = Distribution half life in ICR mouse at 20 mg/kg, po administered as via gavage measured for 36 hrs by UPLC analysis; format: ADME, organism-based; details: in vivo, read-out: alphat1/2 (converted)
[30] = Terminal half life in ICR mouse at 20 mg/kg, po administered as via gavage measured for 36 hrs by UPLC analysis; format: ADME, organism-based; details: in vivo, read-out: beta t1/2 (converted)
[31] = Oral bioavailability in ICR mouse at 20 mg/kg administered as via gavage measured for 36 hrs by UPLC analysis; format: ADME, organism-based; details: in vivo
Staphylococcus aureus [32] = test: Antibacterial activity against linezolid-sensitive Staphylococcus aureus NRS70 infected in mouse model of neutropenic thigh infection assessed as reduction in bacterial count at 40 mg/kg, po administered 1 hrs post infection and measured for 48 hrs; format: functional
Staphylococcus aureus [33] = test: Antibacterial activity against linezolid-resistant Staphylococcus aureus NRS119 infected in mouse model of neutropenic thigh infection assessed as reduction in bacterial count at 40 mg/kg, po administered […]; format: functional
[34] = Drug level in mouse thigh infected with linezolid-sensitive Staphylococcus aureus NRS70 at 40 mg/kg, po administered 1 hrs post infection and measured for 48 hrs; format: ADME, organism-based; details: read-out: Drug uptake
[35] = Drug level in mouse thigh infected with linezolid-resistant Staphylococcus aureus NRS119 at 40 mg/kg, po administered 1 hrs post infection and measured for 48 hrs; format: ADME, organism-based; details: read-out: Drug uptake
Staphylococcus aureus [36] = test: Antibacterial activity against Staphylococcus aureus ATCC 27660 infected in mouse model of peritonitis at 20 mg/kg, iv dosed at 30 mins and 7.5 hrs post infection and measured for 2 days

SMILES | MIC (Staphylococcus aureus [1]) | MIC (Staphylococcus aureus [4]) | MIC (Staphylococcus aureus [5]) | MIC (Staphylococcus aureus [6]) | MIC (Staphylococcus aureus [7]) | MIC (Staphylococcus aureus [8]) | MIC (Staphylococcus aureus [9]) | MIC (Staphylococcus aureus [10]) | MIC [11] | MIC [12] | MIC (Bacillus cereus) | MIC (Bacillus licheniformis) | MIC (Enterococcus faecalis [13]) | MIC (Enterococcus faecalis [14]) | MIC (Enterococcus faecalis [15]) | MIC (Enterococcus faecium [16]) | MIC (Enterococcus faecium [17]) | MIC (Enterococcus faecium [18]) | concentration at 48 h [34] | concentration at 48 h [35] | other results
Fc1ccc(Oc2ccc(-c3noc(-c4ccc5[nH]ccc5c4)n3)cc2)cc1 | 1 to 2 µg/mL (≈ 2.69 to 5.39 µM) | 2 to 4 µg/mL (≈ 5.39 to 10.8 µM) | 1 µg/mL (≈ 2.69 µM) | 2 µg/mL (≈ 5.39 µM) | 1 to 2 µg/mL (≈ 2.69 to 5.39 µM) | 2 µg/mL (≈ 5.39 µM) | 1 µg/mL (≈ 2.69 µM) | 1 µg/mL (≈ 2.69 µM) | 1 µg/mL (≈ 2.69 µM) | 2 µg/mL (≈ 5.39 µM) | 4 µg/mL (≈ 10.8 µM) | 2 µg/mL (≈ 5.39 µM) | 4 µg/mL (≈ 10.8 µM) | 4 µg/mL (≈ 10.8 µM) | 4 µg/mL (≈ 10.8 µM) | 1 µg/mL (≈ 2.69 µM) | 1 µg/mL (≈ 2.69 µM) | 1 µg/mL (≈ 2.69 µM) | 5800 ng/g | 6400 ng/g | fraction unbound at 2 h [2]: 0.012; IC50 (HepG2): 37 µg/mL (≈ 99.6 µM); hemolysis [3]: < 1%; AUClast [19]: 1790 uM.min/ml; AUC [20]: 2570 uM.min/ml; clearance [21]: 7.8 mL/min/kg; Vd [22]: 14.2 L/kg; half-life [23]: 0.4 h; half-life [24]: 21.1 h; AUClast [25]: 718 uM.min/ml; AUC [26]: 1040 uM.min/ml; Cmax [27]: 1000 ng/mL; Tmax [28]: 2.5 h; half-life [29]: 6.2 h; half-life [30]: 17 h; bioavailability [31]: 41%; Activity (Staphylococcus aureus [32]): 1.1 log10CFU; Activity (Staphylococcus aureus [33]): 1.5 log10CFU; Activity (Staphylococcus aureus [36]): Active
FC(F)(F)c1ccc(Oc2ccc(-c3noc(-c4ccc5[nH]ccc5c4)n3)cc2)cc1 | 2 to 4 µg/mL (≈ 4.75 to 9.49 µM) | 4 µg/mL (≈ 9.49 µM) | 2 µg/mL (≈ 4.75 µM) | 2 µg/mL (≈ 4.75 µM) | 2 µg/mL (≈ 4.75 µM) | 2 µg/mL (≈ 4.75 µM) | 2 µg/mL (≈ 4.75 µM) | 2 µg/mL (≈ 4.75 µM) | 2 µg/mL (≈ 4.75 µM) | 4 to 8 µg/mL (≈ 9.49 to 19 µM) | 16 µg/mL (≈ 38 µM) | 8 µg/mL (≈ 19 µM) | 8 µg/mL (≈ 19 µM) | 4 µg/mL (≈ 9.49 µM) | 4 µg/mL (≈ 9.49 µM) | 1 µg/mL (≈ 2.37 µM) | 2 µg/mL (≈ 4.75 µM) | 2 µg/mL (≈ 4.75 µM) | 7600 ng/g | 6000 ng/g | –
CC(=O)NC[C@H]1CN(c2ccc(N3CCOCC3)c(F)c2)C(=O)O1 [LINEZOLID] | – | 1 µg/mL (≈ 2.96 µM) | 1 µg/mL (≈ 2.96 µM) | 1 µg/mL (≈ 2.96 µM) | 32 µg/mL (≈ 94.9 µM) | 32 µg/mL (≈ 94.9 µM) | 1 µg/mL (≈ 2.96 µM) | 1 µg/mL (≈ 2.96 µM) | 0.5 µg/mL (≈ 1.48 µM) | 1 µg/mL (≈ 2.96 µM) | 0.5 µg/mL (≈ 1.48 µM) | 0.5 µg/mL (≈ 1.48 µM) | – | – | – | 1 µg/mL (≈ 2.96 µM) | 1 µg/mL (≈ 2.96 µM) | 1 µg/mL (≈ 2.96 µM) | – | – | –
CN[C@H](CC(C)C)C(=O)N[C@H]1C(=O)N[C@@H](CC(N)=O)C(=O)N[C@H]2C(=O)N[C@H]3C(=O)N[C@H](C(=O)N[C@H](C(=O)O)c4cc(O)cc(O)c4-c4cc3ccc4O)[C@H](O)c3ccc(c(Cl)c3)Oc3cc2cc(c3O[C@@H]2O[C@H](CO)[C@@H](O)[C@H](O)[C@H]2O[C@H]2C[C@](C)(N)[C@H](O)[C@H](C)O2)Oc2ccc(cc2Cl)[C@H]1O [VANCOMYCIN] | – | – | – | – | – | – | 64 µg/mL (≈ 44.2 µM) | 32 µg/mL (≈ 22.1 µM) | – | 4 µg/mL (≈ 2.76 µM) | – | – | 2 µg/mL (≈ 1.38 µM) | 1 µg/mL (≈ 0.69 µM) | – | – | – | – | – | – | –
